Reference: US10857201B2, “NNIF and nNIF-related peptides and related methods” (UNIVERSITY OF UTAH RESEARCH FOUNDATION, priority 2016, dated 2020)

Tests used:
[1] = test system: neutrophil extracellular trap (NET) formation; assay: In vitro NET formation by stimulated human PMNs (live cell imaging, NET-associated histone H3 release); assay type: cell-based
Experimental: Qualitative assessment of NET formation was performed as previously reported (see Yost C C, et al., Blood. 2009; 113 (25):6419-27 and McInturff A M, et al., Blood. 2012; 120 (15):3118-25). Briefly, primary PMNs isolated from preterm infants, healthy term infants, and healthy adults (2×10^6 cells/mL) were incubated with control buffer or stimulated with indicated agonists or bacteria for 1 hour at 37° C. in 5% CO2/95% air on glass coverslips coated with poly-L-lysine. For selected experiments, primary PMNs were pre-incubated with autologous plasma, cord blood plasma, nNIF (0.2-70 nM), CRISPP (0.2-70 nM), nNIF-SCR (1 nM), or CRISPP-SCR (1 nM) for one hour prior to stimulation. After pre-incubation and/or stimulation, PMNs were gently washed with PBS and incubated with a mixture of cell permeable (SYTO® Green, MOLECULAR PROBES®) and impermeable (SYTOX® Orange, MOLECULAR PROBES®) DNA fluorescent dyes. Confocal microscopy was accomplished using a FV1000 IX81 confocal microscope and FLUOVIEW™ software (OLYMPUS™). Both 20× and 60× objectives were used. Z-series images were obtained at a step size of 1 μm over a range of 20 μm for each field. FLUOVIEW™ and ADOBE™ PHOTOSHOP™ CS2 software was used for image processing.
Using BSL 2 safety protocols, primary PMNs isolated from healthy adults (2×10^6 cells/mL) were incubated with mock infection buffer or live dengue virus (M010.05) as for live cell imaging. After a 1-hour incubation, the infected PMNs were fixed with 2% p-FA for 10 minutes prior to incubation with fluorescently-labeled, cell-permeable and cell-impermeable DNA dyes, and imaged as for live cell imaging using confocal microscopy.
NET-associated histone H3 content was determined as previously described (see McInturff A M, et al., Blood. 2012; 120 (15):3118-25). After live cell imaging of control and stimulated primary PMNs (2×10^6/mL; various agonists), the cells were incubated with PBS containing DNase (40 U/mL) for 15 minutes at room temperature to break down and release NETs formed in response to stimulation. The supernatant was gently removed and centrifuged at 420×g for 5 minutes. The cell-free supernatant was then mixed 3:1 with 4× Laemmli buffer prior to western blotting. A polyclonal primary antibody against human histone H3 protein (CELL SIGNALING®) and infrared-conjugated secondary antibodies (LI-COR®) were used. Imaging and densitometry were performed on the ODYSSEY® infrared imaging system)(LI-COR®). This assay was previously validated as a surrogate for NET formation under in vitro conditions (see McInturff A M, et al., Blood. 2012; 120 (15):3118-25) as employed in the present studies.
Without being bound by any specific theory, it was hypothesized that placentally expressed HTRA1, a serine protease, regulates the formation of NET-inhibitory peptides through cleavage of AAT. To test this hypothesis, term and preterm placenta were assessed for HTRA1 expression via western blotting. HTRA1 and AAT plasma expression from term and preterm infants and adults were determined by ELISA. Bioactive (0.5 μg) or placental eluted HTRA1 was incubated with AAT (8 μM) for 18 hours at 37° C. Carboxy-terminus fragments of AAT were detected using western blotting and mass spectrometry. The reaction products were incubated for 1 hour with PMNs isolated from healthy adults prior to LPS stimulation (100 ng/mL) and assessed for NET formation using live cell imaging. Reactive oxygen species were assessed using flow cytometry, chemotaxis using a modified Boyden chamber assay, and bacterial killing using E. coli.

[2] = test system: LPS-induced peritoneal NET formation; assay: Mouse model of LPS-induced peritonitis (in vivo NET formation); conditions: C57BL/6 mice, i.p. LPS
Experimental: (§1) C57/BL6 or Swiss-Webster mice were pretreated in blinded fashion with CRISPP (10 mg/kg), nNIF (10 mg/kg), or CRISPP-SCR (10 mg/kg) by i.p. injection 1 hour prior to infection (E. coli, 4.5×10^7 cfu/mouse, i.p.) or inoculation (LPS, 25 mg/kg, i.p.) (SIGMA-ALDRICH®). Control mice were injected with saline alone. The mice were sacrificed in a CO2 chamber 3 hours post-infection/inoculation, and the peritoneal fluid and membrane samples were harvested. Briefly, the abdomen was disinfected and opened in the midline without injuring the muscle. The peritoneal cavity was lavaged with sterile saline solution (1 mL) and analyzed for in vivo NET formation, bacteriology, and leukocyte accumulation. NETs in the peritoneal fluid were qualitatively and quantitatively analyzed using live cell imaging with confocal microscopy and NET-associated histone H3 release assays. NETs on the serosal surface of the peritoneal membrane were assessed quantitatively using live cell imaging, followed by standardized grid analysis of five randomly selected high-power visual fields per tissue sample (IMAGEJ™ software, NIH). Peritoneal bacterial colony forming unit (cfu) counts were quantified by permeabilizing all recovered leukocytes with 0.1% Triton X-100 for 10 minutes and performing serial dilutions and bacterial cultures on 5% sheep blood agar plates (HARDY DIAGNOSTICS™). After a 24-hour incubation, bacterial counts were determined. Total leukocyte counts in the peritoneal lavage were determined in Neubauer chambers using an optical microscope after dilution in Turk's solution (2% acetic acid). Differential leukocyte analysis was performed using a 60× oil immersion objective to assess morphology of cyto-centrifuged cells stained with May-Gruenwald-Giemsa dye. All mice were included in the final analysis.

[3] = test system: NET formation in E. coli peritonitis; assay: Mouse model of E. coli peritonitis (in vivo NET formation); conditions: C57BL/6 mice, 10 mg/kg i.p. 1 hour before E. coli i.p., 3 hours
From the text: FIG. 8A depicts results of peritoneal fluid NET formation (red fluorescence, yellow arrow) assessed by live cell imaging (60× magnification, scale bar=50 μm) and histone H3 release (red dashed line=baseline arbitrarily set at 1). Three mice per group. One way ANOVA with Tukey's post hoc testing, ***P<0.001 for CRISPP and nNIF versus CRISPP-SCR.
FIG. 8B depicts results of NET formation on the surfaces of peritoneal membranes (red fluorescence, yellow arrows) that was quantified by counting the number of NETs that crossed standardized grid lines in […] (60× magnification; scale bar=50 μm) using IMAGEJ™ software. A second experiment yielded a similar pattern. FIGS. 8A and 8B depict C57BL/6 mice that were not pretreated or pretreated with nNIF, CRISPP, or CRISPP-SCR (10 mg/kg i.p.; 1 hour) and were inoculated with E. coli (4.5×10^7 bacteria i.p.). After 3 hours, the animals were sacrificed, and peritoneal fluid (FIG. 8A) and membranes (FIG. 8B) were collected for analysis.
FIG. 8C depicts C57BL/6 mice that were not pretreated (left two bars) or that were pretreated with CRISPP, nNIF, or CRISPP-SCR, and that were inoculated with E. coli i.p. as in FIGS. 8A and 8B. Neutrophil numbers in peritoneal fluid were counted after 3 hours (3-5 mice/group). […]
FIG. 8E depicts peritoneal fluid NET formation, imaged and measured as in FIG. 8A (10 mice/group). *P<0.05 for CRISPP/E. coli and nNIF/E. coli compared to CRISPP-SCR/E. coli and E. coli.
FIG. 8F depicts NET formation on peritoneal membrane surfaces, imaged and quantitated as in FIG. 8B (3 mice in each group). *P<0.05 for E. coli versus control (red dashed line); **P<0.01 for CRISPP-SCR/E. coli versus control; †P<0.05 for CRISPP/E. coli and nNIF/E. coli versus CRISPP-SCR/E. coli. One way ANOVA with Tukey's post-hoc testing applied in FIGS. 8E and 8F. In FIGS. 8E and 8F, Swiss-Webster mice that were not pretreated or that were pretreated with nNIF, CRISPP, or CRISPP-SCR were inoculated with E. coli i.p. as in FIGS. 8A and 8B. After 3 hours, peritoneal fluid and membranes were collected. FIGS. 8A-8F indicate that nNIF and CRISPP inhibit in vivo NET formation.
as §1

[4] = test system: C57BL/6 mice challenged with LPS; assay: Mouse model of systemic inflammation induced by LPS (endotoxemia), survival; assay type: in vivo; conditions: i.p. LPS, first experiment, n=6 per group
Experimental: Animals with no treatments or given LPS alone were studied in parallel (n≥10 mice for each condition). **P<0.01, log-rank (Mantel-Cox) statistical tool used. The survival difference between nNIF-LPS and CRISPP-LPS compared to CRISPP-SCR-LPS trended toward significance (§ P=0.051).
Control mice were i.p. injected with saline alone. Fluid resuscitation and antibiotic treatment were not used in these experiments. Survival was assessed over 50 or 72 hour intervals. All mice were included in the final survival analysis.

For “V_MDITPMQVGPLKMKPKVIFNPFKLFENF [CRISPP-SCR, scrambled control peptide of CRISPP, reference compound]”, the “PMA-stimulated NET deployment” value ([1]; PMA 20 nM, peptides 1 nM, 1 hour preincubation) was “not”, the “NET formation triggered by LPS” value ([1]; adult PMNs preincubated with agent, LPS 100 ng/mL, 1 hour) was “does not” and the “LPS-induced peritoneal NET formation” value [2] was “not”. For the same substance, the “NET formation by peritoneal fluid PMNs” value [3] was “not”, the “deployment of NETs on the peritoneal surface” value [3] was “not” and the “animals alive at 50 hours” value [4] was 30%.
